Measured values published in ChEMBL document CHEMBL1201862, “PubChem BioAssay data set” (2004).
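Cells were grown in 96-well plates and exposed to each compound for 48 hours at five concentrations; endpoints were interpolated linearly between bracketing concentrations, or set to the highest concentration if not reached. The concentration for 50% growth inhibition is given as GI50.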 The source made the active and inactive calls. Rule as the data show it: active = GI50 up to about 1.1 µM and inactive = higher.

Tests used:
Assay in all cases: NCI anticancer screen, dose series, 48 h
[1] = test system: RXF 393
[2] = test system: SK-OV-3
[3] = test system: UO-31
[4] = test system: SF-539
[5] = test system: HCT-15
[6] = test system: SF-295
[7] = test system: K562
[8] = test system: HCC 2998
[9] = test system: NCI-H23
[10] = test system: HCT-116
[11] = test system: NCI-H460
[12] = test system: HL-60
[13] = test system: IGROV-1
[14] = test system: MOLT-4
[15] = test system: SK-MEL-2
[16] = test system: OVCAR-8
[17] = test system: Malme-3M
[18] = test system: OVCAR-3

Row | SMILES | GI50 [1] | GI50 [2] | GI50 [3] | GI50 [4] | GI50 [5] | GI50 [6] | GI50 [7] | GI50 [8] | GI50 [9] | GI50 [10] | GI50 [11] | GI50 [12] | GI50 [13] | GI50 [14] | GI50 [15] | GI50 [16] | GI50 [17] | GI50 [18]
1 | COC(=O)C(Cc1cc(OC)c(OC)c(OC)c1)(NC(=O)c1ccccc1)P(=O)(OC)OC (stereo not drawn) | > 100 µM (inactive) | > 100 µM (inactive) | > 100 µM (inactive) | > 100 µM (inactive) | > 100 µM | > 100 µM (inactive) | > 100 µM (inactive) | > 100 µM (inactive) | > 100 µM (inactive) | > 100 µM (inactive) | > 100 µM (inactive) | > 100 µM (inactive) | > 100 µM (inactive) | > 100 µM (inactive) | > 100 µM (inactive) | > 100 µM (inactive) | – | –
2 | COC(=O)c1ccc(OCc2ccc3nc(OC)c(OC)nc3c2)cc1 | – | – | > 100 µM (inactive) | > 100 µM (inactive) | > 100 µM | 82.6 µM (inactive) | > 100 µM (inactive) | > 100 µM (inactive) | > 100 µM (inactive) | 89.9 µM (inactive) | > 100 µM (inactive) | > 100 µM (inactive) | – | > 10 µM (inactive) | > 100 µM (inactive) | > 100 µM (inactive) | > 100 µM (inactive) | > 100 µM (inactive)
3 | O=C(CC1OC(O)C(Cl)=C1Cl)c1cccnc1 (stereo not drawn) | > 100 µM (inactive) | > 100 µM (inactive) | > 100 µM (inactive) | 0.359 µM (active) | > 41.1 µM | > 100 µM (inactive) | > 100 µM (inactive) | > 71.8 µM (inactive) | > 100 µM (inactive) | > 39.8 µM (inactive) | > 73.5 µM (inactive) | > 100 µM (inactive) | > 100 µM (inactive) | > 100 µM (inactive) | – | > 100 µM (inactive) | > 100 µM (inactive) | > 100 µM (inactive)
4 | C=CCONC(=O)c1ccc(Cl)cc1 | > 100 µM (inactive) | > 100 µM (inactive) | > 100 µM (inactive) | > 100 µM (inactive) | > 100 µM | > 100 µM (inactive) | > 100 µM (inactive) | > 100 µM (inactive) | > 100 µM (inactive) | > 100 µM (inactive) | > 100 µM (inactive) | > 100 µM (inactive) | > 100 µM (inactive) | > 100 µM (inactive) | > 100 µM (inactive) | > 100 µM (inactive) | > 100 µM (inactive) | –
5 | CCN(c1ccc(Br)cc1)c1c(Br)c(=O)nc2ccccn12 | – | 51.5 µM (inactive) | 35.7 µM (inactive) | > 100 µM (inactive) | 99.1 µM | – | 90.6 µM (inactive) | – | > 100 µM (inactive) | > 100 µM (inactive) | > 100 µM (inactive) | – | > 100 µM (inactive) | > 100 µM (inactive) | > 100 µM (inactive) | > 100 µM (inactive) | 64.9 µM (inactive) | > 100 µM (inactive)
6 | CN(C(=O)C12C3(C(=O)C(C)(C)C)C4C5(C#N)C3C1(C(=O)C(C)(C)C)C5C42C(=O)C(C)(C)C)C(C)(C)C (stereo not drawn) | – | > 50 µM (inactive) | 29.6 µM (inactive) | > 50 µM (inactive) | > 50 µM | > 50 µM (inactive) | 27.2 µM (inactive) | > 50 µM (inactive) | 40.6 µM (inactive) | 24.2 µM (inactive) | > 50 µM (inactive) | 16.1 µM (inactive) | > 50 µM (inactive) | 20 µM (inactive) | – | > 50 µM (inactive) | > 50 µM (inactive) | 38.9 µM (inactive)
7 | C=C(CO)CC(O)c1ccccc1 (stereo not drawn) | > 100 µM (inactive) | > 100 µM (inactive) | > 100 µM (inactive) | > 100 µM (inactive) | > 100 µM | > 100 µM (inactive) | > 100 µM (inactive) | > 100 µM (inactive) | > 100 µM (inactive) | > 100 µM (inactive) | > 100 µM (inactive) | > 100 µM (inactive) | > 100 µM (inactive) | > 100 µM (inactive) | > 100 µM (inactive) | > 100 µM (inactive) | – | > 100 µM (inactive)
8 | O=C1C2CN(Cc3ccccc3)CC1CN(CC1CC1)C2 | > 100 µM (inactive) | > 100 µM (inactive) | > 100 µM (inactive) | > 100 µM (inactive) | > 100 µM | > 100 µM (inactive) | > 100 µM (inactive) | – | > 100 µM (inactive) | – | > 100 µM (inactive) | > 100 µM (inactive) | > 100 µM (inactive) | > 100 µM (inactive) | > 100 µM (inactive) | > 100 µM (inactive) | > 100 µM (inactive) | > 100 µM (inactive)
9 | O=C1C(c2ccccc2)=C(c2ccccc2)C(c2ccc(CCCCCCc3ccc(C4=C(c5ccccc5)C(=O)C(c5ccccc5)=C4c4ccccc4)cc3)cc2)=C1c1ccccc1 | 26.4 µM (inactive) | – | > 100 µM (inactive) | > 100 µM (inactive) | > 100 µM | > 100 µM (inactive) | > 100 µM (inactive) | > 100 µM (inactive) | > 100 µM (inactive) | > 100 µM (inactive) | > 100 µM (inactive) | > 100 µM (inactive) | > 100 µM (inactive) | > 100 µM (inactive) | > 100 µM (inactive) | > 100 µM (inactive) | > 100 µM (inactive) | > 100 µM (inactive)
10 | COc1ccccc1NC(=O)C1=C(C)NC(C)=C(C(=O)Nc2ccccc2OC)C1c1ccc(C(C)C)cc1 | – | > 100 µM (inactive) | 29 µM (inactive) | > 100 µM (inactive) | > 100 µM | > 100 µM (inactive) | – | 63.7 µM (inactive) | > 100 µM (inactive) | 13.8 µM (inactive) | 61.1 µM (inactive) | – | > 100 µM (inactive) | 9.18 µM (inactive) | > 100 µM (inactive) | > 100 µM (inactive) | 67.6 µM (inactive) | > 100 µM (inactive)
11 | CC[C@@H]1NC(C(=O)OC)Cc2c1[nH]c1ccccc21 (stereo partly drawn) | – | > 100 µM (inactive) | > 100 µM (inactive) | > 100 µM (inactive) | > 100 µM | > 100 µM (inactive) | > 100 µM (inactive) | > 100 µM (inactive) | > 100 µM (inactive) | > 100 µM (inactive) | 27.9 µM (inactive) | > 100 µM (inactive) | > 100 µM (inactive) | > 100 µM (inactive) | > 100 µM (inactive) | > 100 µM (inactive) | > 100 µM (inactive) | > 100 µM (inactive)
12 | O=C1c2cc3c(cc2[C@@H]2NC4CCCC14O2)OCO3 (stereo partly drawn) | > 100 µM (inactive) | > 100 µM (inactive) | > 100 µM (inactive) | > 100 µM (inactive) | – | > 100 µM (inactive) | > 100 µM (inactive) | – | > 100 µM (inactive) | > 100 µM (inactive) | > 100 µM (inactive) | > 100 µM (inactive) | > 100 µM (inactive) | > 100 µM (inactive) | > 100 µM (inactive) | > 100 µM (inactive) | – | > 100 µM (inactive)
13 | CS(=O)(=O)N(N(CCCl)S(=O)(=O)c1ccccc1)S(C)(=O)=O | > 100 µM (inactive) | – | 76.7 µM (inactive) | 38.5 µM (inactive) | > 100 µM | 88.9 µM (inactive) | > 100 µM (inactive) | > 100 µM (inactive) | > 100 µM (inactive) | > 100 µM (inactive) | 86.1 µM (inactive) | > 100 µM (inactive) | – | > 100 µM (inactive) | > 100 µM (inactive) | > 100 µM (inactive) | > 100 µM (inactive) | > 100 µM (inactive)
